Experimental data from paper PMC5385520 (Scientific Reports, 2017).
Like-named read-outs stand apart in the source and are kept apart here.

Assays:
[1] = molecular target: T1, hDDO (human D-aspartate oxidase) (Homo sapiens, UniProt Q99489); test: coupled HRP / Amplex UltraRed fluorescence assay; type: biochemical; parameters: gene DDO; recombinant
T1 sequence (Q99489 1-341): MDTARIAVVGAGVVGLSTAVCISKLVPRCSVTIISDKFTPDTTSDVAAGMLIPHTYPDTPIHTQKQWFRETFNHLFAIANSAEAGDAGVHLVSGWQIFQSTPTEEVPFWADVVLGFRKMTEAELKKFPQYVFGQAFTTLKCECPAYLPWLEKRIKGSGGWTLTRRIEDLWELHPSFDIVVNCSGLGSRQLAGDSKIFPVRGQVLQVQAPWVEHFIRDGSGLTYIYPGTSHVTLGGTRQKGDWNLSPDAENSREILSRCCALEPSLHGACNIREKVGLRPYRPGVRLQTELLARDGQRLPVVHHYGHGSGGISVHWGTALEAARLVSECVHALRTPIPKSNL

[2] = molecular target: T2, mDDO (mouse D-aspartate oxidase) (Mus musculus, UniProt Q922Z0); test: coupled HRP / Amplex UltraRed fluorescence assay; type: biochemical; settings: D-Asp 7.5 mM; FAD 4 and 100 μM; inactive up to 300 μM
T2 construct: gene Ddo; recombinant
T2 sequence (Q922Z0 1-341): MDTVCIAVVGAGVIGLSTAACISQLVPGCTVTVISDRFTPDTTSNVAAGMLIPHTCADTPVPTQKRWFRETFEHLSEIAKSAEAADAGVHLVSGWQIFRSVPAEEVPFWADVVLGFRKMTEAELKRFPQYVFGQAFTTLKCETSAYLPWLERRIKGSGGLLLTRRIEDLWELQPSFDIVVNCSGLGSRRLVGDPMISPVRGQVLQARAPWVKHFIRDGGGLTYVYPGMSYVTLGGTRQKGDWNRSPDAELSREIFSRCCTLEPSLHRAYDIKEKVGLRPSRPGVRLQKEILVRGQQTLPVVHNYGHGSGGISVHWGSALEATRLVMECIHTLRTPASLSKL

[3] = molecular target: T1, hDDO (human D-aspartate oxidase); test: biochemical; parameters: gene DDO
[4] = read-out: Concentration (μM) / 1000
[5] = read-out: Concentration (μM) / 100

activity at 1000 µM [1, 4] [%]	SMILES	activity at 1000 µM [1, 5] [%]	further results
89	CC(NC(C)(C)C)C(=O)c1cccc(Cl)c1 (stereo not drawn) [bupropion]	–	–
> 90	CN(C)CCCN1c2ccccc2Sc2ccc(Cl)cc21 [chlorpromazine]	–	–
–	CN1CCN(C2=Nc3cc(Cl)ccc3Nc3ccccc32)CC1 [clozapine]	> 95	coupled HRP / Amplex UltraRed fluorescence assay [2]: both mDDO and hDDO was unaffected by clozapine at all concentrations tested
–	O=C(CCCN1CCC(O)(c2ccc(Cl)cc2)CC1)c1ccc(F)cc1 [haloperidol]	100	–
–	Cc1cc2c(s1)Nc1ccccc1N=C2N1CCN(C)CC1 [olanzapine]	–	IC50 [3]: 23.4 ± 1.6 µM
